Results as given in patent publication US20080248503A1, “Methods of Screening Compounds to Predict Toxicity and Residual Proliferative and Differentiation Capacity of the Lympho-Hematopoietic System” (priority 2005, published 2008).
Read-outs that look alike come from different tables or passages of the source.

Assays:
mouse T-CFC = assay: HALO 7-population hemotoxicology, mouse T-CFC; format: cell-based
Procedure: (§1) To calculate the quantities of reagents required: • 1.
(§2) (See (iv) Adhesive Plate Covering Film above). • 3. […] Repeat this procedure a total of 4 times. Mixing is very important. • 4.
(§3) Luminescence is measured in relative luminescence units or RLU.

mouse B-CFC = assay: HALO 7-population hemotoxicology, mouse B-CFC; format: cell-based
Procedure: as §1, §2, §3

mouse HPP-SP = test system: mouse HPP-SP
Source text: (§4) Depending on the type and size of the HALO kit used, all of the culture components required, with the exception of the cells, are included. A typical HALO kit contains the 3 component mixes required to culture cells: • 1. Serum component mix (Mix 1): contains fetal bovine serum (FBS), bovine serum albumin (BSA), transferring and insulin. • 2. Methyl cellulose mix (Mix 2): contains methylcellulose and alph-thioglycerol. • 3. Growth factor mix (Mix 3): contains the type and number of growth factors depending on the cell population being stimulated. • 4. Target cells as prepared in step 1 above: different cell types are available from peripheral blood, bone marrow, or umbilical cord blood (humans) procured from human, non-human primate, dog, rat, or mouse. • Methyl cellulose provided: Methyl cellulose is a viscous, water soluble, semi-solid medium for immobilizing cells. The amount of methyl cellulose provided is for the number of 96-well plates determined by the kit. However, if dispensed carefully, there is sufficient methyl cellulose so that several smaller experiments can be performed using the plate(s) provided. • Dispensing individual component mixes and reagents: A repeater pipette may be used which uses a positive-displacement syringe is used to dispense the methyl cellulose mix. • Dispensing the master mix: Once all the component mixes have been added together, use a repeater pipette to dispense the master mix into individual wells. Using normal syringes with needles may result in inaccurate dispensing and greater variation between replicate wells. • Number of replicates performed: At least 4 replicates per culture point are preferred. Plate configuration: The configuration of the 96-well plate for an experiment is arbitrary. However, the number of replicates and the way in which the reagents required to measure luminescence are added, will determine the plate configuration. For example, if performing 4 or 8 replicates per culture point, we recommend configuring the plate in columns, that is, A1 to DI and EI to HI etc. for quadruplicate cultures and A1 to HI, A2 to 112 etc. for 8-replicate cultures are possible. If performing 6 or 12 replicates, we recommend configuring the plate, in rows, that is, A1-A6 and A7 to A12 for 6 replicates and A1-A12, BL to—813 for 12 replicates are possible. If performing column replicates, addition of the ATP releasing reagent and ATP luminescence-monitoring reagent can be performed using an 8-channel pipette from left to right across the plate. If performing row replicates, an 8- or 12-channel pipette can be used to dispense the reagents from the top to the bottom of the plate. To calculate the quantities of reagents required: • 1. Determine the-number of sample categories required for testing and the number of replicates for each sample. • 2. Multiply the number of sample categories by the number of replicates to obtain the number of wells to be used.
(§5) Before adding the target cells, ensure that a single cell suspension has been prepared. • 6. Mix the contents of the tube vigorously to obtain a homogenous master mix. • 7. To ensure that as little master mix as possible remains on the walls of the tube perform a quick spin in a centrifuge to 500 rpm and then let the centrifuge spin down. […] Dispense 100 μl of the reagent master mix into each of the replicate wells. This can be performed with a syringe and needle, but a repeater pipette is recommended for ease of use, reproducibility and to reduce variation. • 9. Transfer the culture plate to a 37 Celsius, fully humidified incubator with an atmosphere of 5% CO2. If possible, use an incubator gassed with 95% nitrogen in order to reduce the atmospheric oxygen concentration of 5% O2 since this helps increase the plating efficiency. • 10.
(§6) The addition of ATP releasing reagent and ATP luminescence-monitoring reagent is performed is the same manner as that for ATP. • 1.

BFU-E = assay: HALO 7-population hemotoxicology, BFU-E (erythropoietic lineage); format: cell-based
Procedure: as §1, §2, §3

CFC-GEMM stem cells = assay: HALO 7-population hemotoxicology, CFC-GEMM; format: cell-based; details: species not stated
Procedure: as §1, §2, §3

HPP-SP stem cells = assay: HALO 7-population hemotoxicology, HPP-SP; format: cell-based; details: species not stated
Procedure: as §1, §2, §3

[1] = test system: lymphopoietic cell populations
Source text: as §4, §5, §6

mouse CFC-GEMM = test system: mouse CFC-GEMM
Source text: as §4, §5, §6

human HPP-SP = test system: human HPP-SP
Source text: as §4, §5, §6

human CFC-GEMM = test system: human CFC-GEMM
Source text: as §4, §5, §6

[2] = test system: progenitor cell populations; assay: HALO 7-population hemotoxicology, progenitor cell populations (hematopoietic lineages); format: cell-based
Procedure: as §1, §2, §3

[3] = test system: mouse hematopoietic lineages; format: cell-based
Procedure: as §1, §2, §3

[4] = test system: human hematopoietic lineages; assay: HALO 7-population hemotoxicology, human hematopoietic lineages; format: cell-based
Procedure: as §1, §2, §3

[5] = test system: primitive and mature stem cell populations; assay: HALO 7-population hemotoxicology, primitive and mature stem cell populations; format: cell-based; details: FIG. 17A
Procedure: as §1, §2, §3

[6] = test system: human PBMNCs cultured under BFU-E-stimulating conditions; assay: HALO apoptosis measurement (ADP:ATP ratio) of PBMNCs under BFU-E-stimulating conditions; format: cell-based
Procedure: Fresh human PBMNCs were cultured under BFU-E-stimulating conditions, together with 3 concentrations of DOX, namely 1 ng/ml (low), 10 ng/ml (medium) and 100 ng/ml (high) as per a typical HALO test procedure. Replicate plates were used so that the effects of DOX could be examined at 2 time points, namely days 3 and 7. At each time point, using the APOGLOW™ detection kit (Cambrex BioScience), ATP releasing reagent and ATP luminescence-monitoring reagent were added and the luminescence read immediately. A second luminescence reading was taken when the nadir ATP value occurred. At this point an ADP converting reagent (ADP-CR) was then added, which converts ADP to ATP and the luminescence measured when the conversion reached a plateau. From these 3 measurements ADP-.ATP ratio was determined. FIG. 15A and 15B show the mean RLU values for each of the DOX concentrations measured at the 2 time points. […]
Cell proliferation and apoptosis can actually be performed in a single read by performing HALO as described above, but then instead of measuring only ATP, adenosine diphosphate (ADP) is also measured, as shown in FIGS. 15 and 16. […]
In the HALO methods that form the basis of the kits of the present invention, ATP is released from the cells using ATP releasing reagent and a 15 min incubation. Thereafter, the ATP luminescence-monitoring reagent is added and the plates read immediately. […]

[7] = test system: human PBMNCs cultured under BFU-E-stimulating conditions; assay: HALO cell proliferation (luminescence) of PBMNCs under BFU-E-stimulating conditions; format: cell-based; details: days 3 and 7
Procedure: Fresh human PBMNCs were cultured under BFU-E-stimulating conditions, together with 3 concentrations of DOX, namely 1 ng/ml (low), 10 ng/ml (medium) and 100 ng/ml (high) as per a typical HALO test procedure. Replicate plates were used so that the effects of DOX could be examined at 2 time points, namely days 3 and 7. At each time point, using the APOGLOW™ detection kit (Cambrex BioScience), ATP releasing reagent and ATP luminescence-monitoring reagent were added and the luminescence read immediately. A second luminescence reading was taken when the nadir ATP value occurred. At this point an ADP converting reagent (ADP-CR) was then added, which converts ADP to ATP and the luminescence measured when the conversion reached a plateau. From these 3 measurements ADP-.ATP ratio was determined. FIG. 15A and 15B show the mean RLU values for each of the DOX concentrations measured at the 2 time points. […] On day 3, the increase in ADP:ATP ratio is due to apoptosis of cells with low proliferative capacity.

For `Nc1ccc(N)cc1` [p-phenelenediamine], the “effect on mouse T-CFC” value (mouse T-CFC) was “decrease”, the “effect on mouse B-CFC” value (mouse B-CFC) was “decrease” and the “effect on mouse HPP-SP” value (mouse HPP-SP; mouse) was “decrease”.

In the case of `O=C(N[C@H](CO)[C@H](O)c1ccc([N+](=O)[O-])cc1)C(Cl)Cl` [chloramphenicol], the “effect on erythroid elements” value (BFU-E; erythropoietic lineage) is reported as “decrease”, the “effect on BFU-E” value (BFU-E; species not stated) is reported as “specifically inhibited” and the “effect on CFC-GEMM stem cells” value (CFC-GEMM stem cells) is reported as “no effect”. The “effect on HPP-SP stem cells” value (HPP-SP stem cells) was “Stimulation” and the “effect on lymphopoietic cells / lymphopoietic lineages” value ([1]; T-CFC & B-CFC) was “stimulation”.

`[Na+].[Na+].[O]=[Cr](=[O])([O-])[O][Cr](=[O])(=[O])[O-]` [sodium dichromate] was tested, and the “effect on lymphopoietic cells / lymphopoietic lineages” value [1] was “inhibition”, the “effect on mouse HPP-SP” value (mouse HPP-SP) was “inhibited” and the “effect on mouse CFC-GEMM” value (mouse CFC-GEMM) was “inhibited”. For the same compound, the “effect on human HPP-SP” value (human HPP-SP) was “inhibited”, the “effect on human CFC-GEMM” value (human CFC-GEMM) was “inhibited” and the “effect on progenitor cells / hematopoietic lineages” value [2] was “inhibition”.

With `CN(C)C=O` [N,N-dimethylformamide] the “effect on mouse T-CFC” value (mouse T-CFC) was “stimulation”, the “effect on mouse HPP-SP” value (mouse HPP-SP; mouse) was “stimulated” and the “effect on human HPP-SP” value (human HPP-SP; human) was “effected”. The “effect on mouse hematopoietic lineages” value [3] was “effected”.

`[Cl][Cd][Cl]` [cadmium chloride] was tested, and the “effect on human hematopoietic lineages” value [4] was “decrease”, the “effect on lymphopoietic cells / lymphopoietic lineages” value ([1]; T-CFC & B-CFC) was “decrease” and the “effect on mouse HPP-SP” value (mouse HPP-SP; mouse) was “decrease”. The “effect on mouse CFC-GEMM” value (mouse CFC-GEMM; mouse) was “no effect”, the “effect on human HPP-SP” value (human HPP-SP; human) was “decrease” and the “effect on human CFC-GEMM” value (human CFC-GEMM; human) was “decrease”. For the same compound, the “effect on mouse hematopoietic lineages” value [3] was “decrease”.

For `c1ccccc1` [benzene], the “effect on CFC-GEMM stem cells” value (CFC-GEMM stem cells) was “acts at the CFC-GEMM level” and the “effect on progenitor cells / hematopoietic lineages” value [2] was “hematopoietic suppression”.

`CCn1cc(C(=O)O)c(=O)c2ccc(C)nc21` [naladixic acid] was tested, and the “effect on stem cells” value [5] was “No demonstrable effect”, the “effect on lymphopoietic cells / lymphopoietic lineages” value ([1]; T-CFC & B-CFC) was “No demonstrable effect” and the “effect on progenitor cells / hematopoietic lineages” value [2] was “No demonstrable effect”.

For `COc1cccc2c1C(=O)c1c(O)c3c(c(O)c1C2=O)C[C@@](O)(C(=O)CO)C[C@@H]3O[C@H]1C[C@H](N)[C@H](O)[C@H](C)O1` [DOX, doxorubicin], the “effect on ADP:ATP ratio” value ([6]; day 3) was “increase”, the “apoptosis of BFU-E and immediate progeny” value ([6]; day 7) was “induced into apoptosis” and the “effect on mean RLU (luminescence)” value ([7]; 1 ng/ml (low)) was “little or no effect”. For the same compound, the “effect on mean RLU (luminescence)” value ([7]; 10 ng/ml (medium)) was “decrease the luminescence” and the “effect on mean RLU (luminescence)” value ([7]; 100 ng/ml (high)) was “decrease the luminescence”.
